Earlier results on 1 compound are cited in US7618650B2, “Combination of a hypnotic agent and substituted bis aryl and heteroaryl compound and therapeutic application thereof” (Aventis Pharmaceuticals Inc, priority 2005, dated 2009).

The conditions of this data set: average dosage between 5 and 10 mg in a conventional formulation.

For `Cc1ccc(-c2nc3ccc(C)cn3c2CC(=O)N(C)C)cc1` [Zolpidem, zolpidem], the “half life, average value” is listed as “about 2.4 hours”.
